As a reminder, the melting point is the temperature, or range, at which the solid turns liquid. Turning to `O=C(Nc1cnc(-c2cc(Cl)cc(Cl)c2Cl)c(NC(=O)C2CC2)n1)C1CC1` [Example 9, 2,6-Dicyclopropylcarbonylamino-3-(2,3,5-trichlorophenyl) pyrazine], the melting point lay within 212 to 214 °C.

Turning to `Nc1nc(NC(=O)C2CC2)cnc1-c1cc(Cl)cc(Cl)c1Cl` [Example 9, 2-Amino-6-cyclopropylcarbonylamino-3-(2,3,5-trichlorophenyl)pyrazine], the melting point was 240 to 244 °C.

Consider `CC(C)C(=O)Nc1cnc(-c2cc(Cl)cc(Cl)c2Cl)c(NC(=O)C(C)C)n1` [Example 10, 2,6-Diisopropylcarbonylamino-3-(2,3,5-trichlorophenyl) pyrazine], for which the melting point is 227 to 229 °C.

As for `N#Cc1nc(-c2cc(Cl)cc(Cl)c2Cl)c(N)nc1N` [Example 17, 5-Cyano-2,6-Diamino-3-(2,3,5-trichlorophenyl)pyrazine], the melting point is 277 to 279 °C.

The values above are taken from patent US6599905B2, “Pyrazine compounds” (SmithKline Beecham Corporation, priority 1997, dated 2003).
